Read-outs that look alike come from different tables or passages of the source. Each block holds one molecule with its values, some of them ahead of it.
Legend:
Assay in all cases: biochemical
[1] = target: T1, VRK1 (Homo sapiens, UniProt Q99986)
T1 sequence (Q99986 1-396): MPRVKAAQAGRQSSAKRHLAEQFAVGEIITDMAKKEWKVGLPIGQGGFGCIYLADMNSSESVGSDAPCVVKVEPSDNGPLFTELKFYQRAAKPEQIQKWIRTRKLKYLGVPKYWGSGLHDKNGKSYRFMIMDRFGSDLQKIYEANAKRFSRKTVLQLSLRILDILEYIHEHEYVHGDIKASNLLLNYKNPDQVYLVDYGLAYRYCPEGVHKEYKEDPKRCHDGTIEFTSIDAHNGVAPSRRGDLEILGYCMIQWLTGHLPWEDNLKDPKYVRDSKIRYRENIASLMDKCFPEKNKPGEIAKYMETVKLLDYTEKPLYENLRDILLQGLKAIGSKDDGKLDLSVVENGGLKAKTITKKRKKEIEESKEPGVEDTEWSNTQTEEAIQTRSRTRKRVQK

[2] = target: CaMK2b (Homo sapiens, UniProt Q13554)
[3] = target: T2, AurA (Homo sapiens, UniProt O14965)
T2 sequence (O14965 1-403): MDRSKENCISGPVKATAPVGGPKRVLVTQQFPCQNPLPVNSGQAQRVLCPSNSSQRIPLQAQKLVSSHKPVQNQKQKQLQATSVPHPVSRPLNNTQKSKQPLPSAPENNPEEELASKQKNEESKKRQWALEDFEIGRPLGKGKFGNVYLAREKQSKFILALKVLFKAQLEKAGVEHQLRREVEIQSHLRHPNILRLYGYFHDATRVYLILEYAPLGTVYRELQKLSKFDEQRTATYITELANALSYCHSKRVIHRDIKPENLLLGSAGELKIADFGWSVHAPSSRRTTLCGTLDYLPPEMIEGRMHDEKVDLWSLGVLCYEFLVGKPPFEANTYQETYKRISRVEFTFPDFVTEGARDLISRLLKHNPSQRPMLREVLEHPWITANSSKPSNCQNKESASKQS

[4] = target: CDK2 (Homo sapiens, UniProt P24941)
[5] = target: T3, MAP3K5 (Homo sapiens, UniProt Q99683)
T3 sequence (Q99683 1-1374): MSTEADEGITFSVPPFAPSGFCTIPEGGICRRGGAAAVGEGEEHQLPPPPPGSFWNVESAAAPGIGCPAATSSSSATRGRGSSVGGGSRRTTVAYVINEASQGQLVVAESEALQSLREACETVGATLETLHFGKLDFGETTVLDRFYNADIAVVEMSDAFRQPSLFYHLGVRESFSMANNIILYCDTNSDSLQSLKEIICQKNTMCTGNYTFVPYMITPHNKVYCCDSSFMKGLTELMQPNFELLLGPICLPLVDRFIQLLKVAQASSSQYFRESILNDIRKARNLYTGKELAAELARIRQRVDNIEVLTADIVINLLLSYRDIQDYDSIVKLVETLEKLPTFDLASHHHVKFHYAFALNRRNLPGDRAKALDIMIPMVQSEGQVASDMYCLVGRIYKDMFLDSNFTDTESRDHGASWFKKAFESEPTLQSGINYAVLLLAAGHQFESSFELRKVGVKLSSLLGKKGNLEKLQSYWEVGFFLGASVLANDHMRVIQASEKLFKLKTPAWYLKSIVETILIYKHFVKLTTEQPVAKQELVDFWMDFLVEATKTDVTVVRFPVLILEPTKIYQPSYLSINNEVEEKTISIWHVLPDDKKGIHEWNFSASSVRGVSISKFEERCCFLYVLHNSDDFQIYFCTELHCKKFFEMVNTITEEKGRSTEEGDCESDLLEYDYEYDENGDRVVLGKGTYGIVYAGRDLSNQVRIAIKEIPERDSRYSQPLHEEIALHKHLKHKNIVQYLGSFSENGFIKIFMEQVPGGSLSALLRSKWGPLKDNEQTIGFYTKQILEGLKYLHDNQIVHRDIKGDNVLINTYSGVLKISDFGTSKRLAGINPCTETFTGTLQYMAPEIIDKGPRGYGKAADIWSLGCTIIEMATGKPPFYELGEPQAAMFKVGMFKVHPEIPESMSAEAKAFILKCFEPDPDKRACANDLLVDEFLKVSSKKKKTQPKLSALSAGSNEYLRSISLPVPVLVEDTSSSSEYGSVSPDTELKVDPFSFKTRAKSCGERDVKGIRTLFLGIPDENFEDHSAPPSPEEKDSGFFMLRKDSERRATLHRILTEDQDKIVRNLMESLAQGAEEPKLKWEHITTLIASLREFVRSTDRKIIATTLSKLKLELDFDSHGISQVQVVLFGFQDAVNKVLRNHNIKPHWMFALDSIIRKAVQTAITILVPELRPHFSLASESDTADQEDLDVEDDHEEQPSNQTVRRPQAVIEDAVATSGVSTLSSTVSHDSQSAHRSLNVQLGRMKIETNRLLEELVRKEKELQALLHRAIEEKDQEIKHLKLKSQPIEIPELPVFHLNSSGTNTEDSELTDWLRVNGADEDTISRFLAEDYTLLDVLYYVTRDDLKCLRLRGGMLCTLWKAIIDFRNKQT

[6] = target: MELK (Homo sapiens, UniProt Q14680)
[7] = target: CDKL1 (Homo sapiens, UniProt Q00532)
[8] = target: T2, AurA; remark: listed apart in the source
[9] = target: SRC (Homo sapiens, UniProt P12931)
[10] = target: SRPK1 (Homo sapiens, UniProt Q96SB4)
Sequence of SRPK1 (Q96SB4 whole entry): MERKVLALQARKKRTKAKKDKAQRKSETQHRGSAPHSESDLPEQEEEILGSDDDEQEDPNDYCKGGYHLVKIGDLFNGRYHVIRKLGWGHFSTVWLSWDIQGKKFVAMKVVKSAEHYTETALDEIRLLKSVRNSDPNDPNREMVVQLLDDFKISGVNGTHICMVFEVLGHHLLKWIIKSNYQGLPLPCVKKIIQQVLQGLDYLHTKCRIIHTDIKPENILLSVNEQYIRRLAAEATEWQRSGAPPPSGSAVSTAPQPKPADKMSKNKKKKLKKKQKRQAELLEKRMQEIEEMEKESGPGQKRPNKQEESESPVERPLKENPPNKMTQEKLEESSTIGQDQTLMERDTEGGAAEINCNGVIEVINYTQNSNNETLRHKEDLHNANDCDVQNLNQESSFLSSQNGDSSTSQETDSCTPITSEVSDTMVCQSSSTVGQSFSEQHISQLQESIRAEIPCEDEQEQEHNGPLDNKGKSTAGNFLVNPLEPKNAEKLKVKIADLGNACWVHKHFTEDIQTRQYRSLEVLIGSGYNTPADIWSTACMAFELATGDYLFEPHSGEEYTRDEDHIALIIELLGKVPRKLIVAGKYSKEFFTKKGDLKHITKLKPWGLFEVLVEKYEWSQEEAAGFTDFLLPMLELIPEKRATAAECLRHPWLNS

Sequence of SRC (P12931 whole entry): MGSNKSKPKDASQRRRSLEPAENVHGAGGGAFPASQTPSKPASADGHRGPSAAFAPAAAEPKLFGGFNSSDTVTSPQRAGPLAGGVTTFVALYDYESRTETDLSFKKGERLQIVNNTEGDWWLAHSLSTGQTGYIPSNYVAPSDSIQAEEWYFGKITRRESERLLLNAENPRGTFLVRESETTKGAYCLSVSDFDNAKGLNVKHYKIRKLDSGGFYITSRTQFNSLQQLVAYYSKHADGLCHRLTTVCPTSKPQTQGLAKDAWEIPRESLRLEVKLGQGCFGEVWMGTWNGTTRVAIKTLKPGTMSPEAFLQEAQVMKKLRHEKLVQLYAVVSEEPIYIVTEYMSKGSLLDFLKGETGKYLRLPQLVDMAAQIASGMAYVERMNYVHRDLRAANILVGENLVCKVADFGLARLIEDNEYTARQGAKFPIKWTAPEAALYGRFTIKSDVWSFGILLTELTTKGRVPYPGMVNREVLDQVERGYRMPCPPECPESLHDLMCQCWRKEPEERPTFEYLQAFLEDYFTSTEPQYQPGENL
Sequence of MELK (Q14680 whole entry): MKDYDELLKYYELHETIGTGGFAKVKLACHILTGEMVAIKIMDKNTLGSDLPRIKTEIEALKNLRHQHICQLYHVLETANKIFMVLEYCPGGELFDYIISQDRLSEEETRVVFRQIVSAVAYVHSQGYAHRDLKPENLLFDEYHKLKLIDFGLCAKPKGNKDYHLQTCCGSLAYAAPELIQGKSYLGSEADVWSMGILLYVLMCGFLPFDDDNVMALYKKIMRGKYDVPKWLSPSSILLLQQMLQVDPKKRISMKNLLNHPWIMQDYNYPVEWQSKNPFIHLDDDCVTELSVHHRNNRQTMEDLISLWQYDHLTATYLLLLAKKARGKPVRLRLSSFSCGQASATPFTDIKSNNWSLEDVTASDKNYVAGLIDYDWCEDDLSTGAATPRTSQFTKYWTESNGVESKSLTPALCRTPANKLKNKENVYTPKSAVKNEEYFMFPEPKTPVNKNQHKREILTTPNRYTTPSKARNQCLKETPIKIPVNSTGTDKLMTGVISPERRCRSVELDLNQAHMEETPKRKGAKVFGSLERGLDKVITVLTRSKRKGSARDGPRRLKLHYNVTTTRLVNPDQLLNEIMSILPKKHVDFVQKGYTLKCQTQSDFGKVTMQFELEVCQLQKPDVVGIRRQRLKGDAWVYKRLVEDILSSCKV
Sequence of CDKL1 (Q00532 whole entry): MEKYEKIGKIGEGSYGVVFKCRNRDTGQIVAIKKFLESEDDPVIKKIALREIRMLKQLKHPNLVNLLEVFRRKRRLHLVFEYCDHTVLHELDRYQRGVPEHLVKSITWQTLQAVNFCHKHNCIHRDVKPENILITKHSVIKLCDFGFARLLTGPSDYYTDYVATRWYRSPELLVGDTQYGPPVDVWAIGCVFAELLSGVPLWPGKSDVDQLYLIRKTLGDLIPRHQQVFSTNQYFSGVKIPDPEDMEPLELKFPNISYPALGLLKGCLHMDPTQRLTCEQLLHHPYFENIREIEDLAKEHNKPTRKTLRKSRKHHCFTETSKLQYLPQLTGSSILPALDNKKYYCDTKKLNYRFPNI
Sequence of CaMK2b (Q13554 whole entry): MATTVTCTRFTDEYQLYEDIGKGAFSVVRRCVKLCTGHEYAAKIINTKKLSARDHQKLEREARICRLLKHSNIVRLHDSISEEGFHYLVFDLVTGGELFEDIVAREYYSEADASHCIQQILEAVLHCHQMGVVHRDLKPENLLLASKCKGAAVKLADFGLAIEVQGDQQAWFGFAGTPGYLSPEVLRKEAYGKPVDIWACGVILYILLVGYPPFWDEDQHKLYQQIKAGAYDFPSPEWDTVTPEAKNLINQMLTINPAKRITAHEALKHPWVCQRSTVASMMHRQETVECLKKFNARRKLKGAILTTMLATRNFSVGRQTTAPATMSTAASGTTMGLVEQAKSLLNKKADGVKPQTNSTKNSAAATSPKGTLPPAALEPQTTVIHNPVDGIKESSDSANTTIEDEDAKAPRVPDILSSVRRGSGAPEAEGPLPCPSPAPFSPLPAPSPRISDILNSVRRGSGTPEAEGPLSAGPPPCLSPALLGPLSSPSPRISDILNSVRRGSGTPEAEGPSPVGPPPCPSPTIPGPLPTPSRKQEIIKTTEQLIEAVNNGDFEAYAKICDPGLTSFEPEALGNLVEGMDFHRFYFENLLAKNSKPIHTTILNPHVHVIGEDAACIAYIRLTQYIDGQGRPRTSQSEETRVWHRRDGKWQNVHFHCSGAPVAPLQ

Structure (SMILES): CNc1ncc2cc(-c3cc(F)c(-c4cccc(C)n4)cc3F)c(=O)n(CCCCN)c2n1 [compound 12, 8-(4-Aminobutyl)-6-(2,5-difluoro-4-(6-methylpyridin-2-yl)phenyl)-2-(methylamino)pyrido[2,3-d]pyrimidin-7(8H)-one]
ΔTm at 10 µM ([1]; read-out: dTm 12): 0.3 °C
ΔTm at 10 µM ([2]; read-out: dTm 12): -0.4 °C
ΔTm at 10 µM ([3]; read-out: dTm 12): -2.4 °C
ΔTm at 10 µM ([4]; read-out: dTm 12): 1.1 °C
ΔTm at 10 µM ([5]; read-out: dTm 12): 9.1 °C
ΔTm at 10 µM ([6]; read-out: dTm 12): 6.1 °C

Structure (SMILES): CNc1ncc2cc(-c3cc(C(F)(F)F)ccc3Cl)c(=O)n(CCCCN)c2n1 [compound 9, 8-(4-Aminobutyl)-6-(2-chloro-5-(trifluoromethyl)phenyl)-2-(methylamino)pyrido[2,3-d]pyrimidin-7(8H)-one]
ΔTm at 10 µM ([1]; read-out: dTm 9): 0.1 °C
ΔTm at 10 µM ([2]; read-out: dTm 9): 0.1 °C
ΔTm at 10 µM ([3]; read-out: dTm 9): 1.3 °C
ΔTm at 10 µM ([4]; read-out: dTm 9): 0.3 °C
ΔTm at 10 µM ([5]; read-out: dTm 9): 0.4 °C
ΔTm at 10 µM ([6]; read-out: dTm 9): 1.6 °C

Structure (SMILES): CNc1ncc2cc(-c3cc(Br)ccc3Cl)c(=O)n(C[C@H]3OC[C@H](N)CO3)c2n1 [compound 7, 8-(((2r,5r)-5-Amino-1,3-dioxan-2-yl)methyl)-6-(5-bromo-2-chlorophenyl)-2-(methylamino)pyrido[2,3-d]pyrimidin-7(8H)-one]
ΔTm at 10 µM ([7]; read-out: dTm 7): -0.1 °C
ΔTm at 10 µM ([8]; read-out: dTm 7): 1.4 °C
ΔTm at 10 µM ([9]; read-out: dTm 7): 0.1 °C
ΔTm at 10 µM ([10]; read-out: dTm 7): 0.1 °C

Structure (SMILES): CNc1ncc2cc(-c3ccc(-c4cccc(C)n4)cc3Cl)c(=O)n(CC3OCC(N)CO3)c2n1 (stereo not shown) [compound 2, G-5555]
dTm G-5555 (2) ([7]; 10 µM, binder): -0.1 °C
dTm G-5555 (2) ([8]; 10 µM, binder): 8.5 °C
dTm G-5555 (2) ([9]; 10 µM, binder): -0.2 °C
dTm G-5555 (2) ([10]; 10 µM, binder): -0.4 °C

Structure (SMILES): CNc1ncc2cc(-c3ccccc3Cl)c(=O)n(CCCCN)c2n1 [compound 4, 8-(4-Aminobutyl)-6-(2-chlorophenyl)-2-(methylamino)pyrido[2,3-d]pyrimidin-7(8H)-one]
ΔTm at 10 µM ([7]; read-out: dTm MR21 (4)): 0.5 °C
ΔTm at 10 µM ([9]; read-out: dTm MR21 (4)): 2.6 °C
ΔTm at 10 µM ([10]; read-out: dTm MR21 (4)): 0.6 °C

More lines, now with the values ahead:

ΔTm at 10 µM ([1]; read-out: dTm 11): 0.5 °C
ΔTm at 10 µM ([2]; read-out: dTm 11): 0.3 °C
ΔTm at 10 µM ([3]; read-out: dTm 11): 1.9 °C
ΔTm at 10 µM ([4]; read-out: dTm 11): 0.7 °C
ΔTm at 10 µM ([5]; read-out: dTm 11): 1.6 °C
ΔTm at 10 µM ([6]; read-out: dTm 11): 4.2 °C
Structure (SMILES): CNc1ncc2cc(-c3cc(Br)ccc3Br)c(=O)n(CCCCN)c2n1 [compound 11, 8-(4-Aminobutyl)-6-(2,5-dibromophenyl)-2-(methylamino)pyrido[2,3-d]pyrimidin-7(8H)-one]

ΔTm at 10 µM ([1]; read-out: dTm 10): 0.7 °C
ΔTm at 10 µM ([2]; read-out: dTm 10): 0.3 °C
ΔTm at 10 µM ([3]; read-out: dTm 10): 2 °C
ΔTm at 10 µM ([4]; read-out: dTm 10): 0.6 °C
ΔTm at 10 µM ([5]; read-out: dTm 10): 1.7 °C
ΔTm at 10 µM ([6]; read-out: dTm 10): 4.3 °C
Structure (SMILES): CNc1ncc2cc(-c3cc(Cl)ccc3Br)c(=O)n(CCCCN)c2n1 [compound 10, 8-(4-Aminobutyl)-6-(2-bromo-5-chlorophenyl)-2-(methylamino)pyrido[2,3-d]pyrimidin-7(8H)-one]

ΔTm at 10 µM ([1]; read-out: dTm 8): 0.7 °C
ΔTm at 10 µM ([2]; read-out: dTm 8): 0.2 °C
ΔTm at 10 µM ([3]; read-out: dTm 8): 1.9 °C
ΔTm at 10 µM ([4]; read-out: dTm 8): 0.6 °C
ΔTm at 10 µM ([5]; read-out: dTm 8): 1.5 °C
ΔTm at 10 µM ([6]; read-out: dTm 8): 4.6 °C
Structure (SMILES): CNc1ncc2cc(-c3cc(Cl)ccc3Cl)c(=O)n(CCCCN)c2n1 [compound 8, 8-(4-Aminobutyl)-6-(2,5-dichlorophenyl)-2-(methylamino)pyrido[2,3-d]pyrimidin-7(8H)-one]

ΔTm at 10 µM ([7]; read-out: dTm 6): 0 °C
ΔTm at 10 µM ([8]; read-out: dTm 6): 1.9 °C
ΔTm at 10 µM ([9]; read-out: dTm 6): 0.2 °C
ΔTm at 10 µM ([10]; read-out: dTm 6): 0.1 °C
Structure (SMILES): CNc1ncc2cc(-c3cc(Br)ccc3Cl)c(=O)n(CCCCN)c2n1 [compound 6, 8-(4-Aminobutyl)-6-(5-bromo-2-chlorophenyl)-2-(methylamino)pyrido[2,3-d]pyrimidin-7(8H)-one]

ΔTm at 10 µM ([7]; read-out: dTm MR22 (5)): 0.5 °C
ΔTm at 10 µM ([8]; read-out: dTm MR22 (5)): -3 °C
ΔTm at 10 µM ([9]; read-out: dTm MR22 (5)): 0.7 °C
ΔTm at 10 µM ([10]; read-out: dTm MR22 (5)): 0.3 °C
Structure (SMILES): CNc1ncc2cc(-c3cc(F)ccc3F)c(=O)n(CCCCN)c2n1 [compound 5, 8-(4-Aminobutyl)-6-(2,5-difluorophenyl)-2-(methylamino)pyrido[2,3-d]pyrimidin-7(8H)-one]

From paper doi:10.1101/2023.03.24.534094v2 (biorxiv, 2023)
